In the OligoGym collection:
HELM strings list units from the 5' end as sugar, base in round brackets, then linkage (d deoxyribose, r ribose, m 2'-O-methyl, p phosphodiester). Strings are as the collection lists them; they lack the last nucleoside at the 3' end of the tested compound. [moe] = 2'-O-(2-methoxyethyl) (MOE); [sp] = phosphorothioate linkage; [m5C] = 5-methylcytosine

Target: UBE3A-ATS
Assay: mouse, dose not given
Details: ASO

| Substance | 3 h FOB score [score 0-7] |
| --- | --- |
| RNA1{[moe](G)[sp].[moe](T)p.[moe](G)p.[moe](T)p.[moe]([m5C])p.d(A)[sp].d(T)[sp].d(A)[sp].d(T)[sp].d(G)[sp].d(T)[sp].d(A)[sp].d(G)[sp].d([m5C])[sp].d(A)[sp].[moe](A)p.[moe](T)p.[moe](T)[sp].[moe](A)}$$$$ (last 3' nucleoside missing) | 6.5 |
| RNA1{[moe](G)[sp].[moe](T)p.[moe](G)p.[moe](T)p.d(G)[sp].d(T)[sp].d(T)[sp].d(T)[sp].d(T)[sp].d(T)[sp].d([m5C])[sp].d([m5C])[sp].d(A)[sp].d(T)[sp].[moe](T)p.[moe](T)p.[moe](T)p.[moe](T)[sp].[moe]([m5C])}$$$$ (last 3' nucleoside missing) | 0 |
| RNA1{[moe](G)[sp].[moe](T)p.[moe](G)p.[moe](T)p.d(T)[sp].d(T)[sp].d(T)[sp].d(T)[sp].d([m5C])[sp].d([m5C])[sp].d(A)[sp].d(T)[sp].d(T)[sp].d(T)[sp].[moe](T)p.[moe](T)p.[moe]([m5C])p.[moe](T)[sp].[moe]([m5C])}$$$$ (last 3' nucleoside missing) | 0 |
| RNA1{[moe](G)[sp].[moe](T)p.[moe](G)p.[moe]([m5C])[sp].d(A)[sp].d(T)[sp].d(A)[sp].d([m5C])[sp].d([m5C])[sp].d([m5C])[sp].d(A)[sp].d(G)[sp].[moe](G)p.[moe](G)p.[moe](T)p.[moe](A)[sp].[moe](G)}$$$$ (last 3' nucleoside missing) | 1 |
| RNA1{[moe](G)[sp].[moe](T)p.[moe](G)p.[moe]([m5C])p.[moe](A)[sp].d(T)[sp].d(A)[sp].d([m5C])[sp].d([m5C])[sp].d([m5C])[sp].d(A)[sp].d(G)[sp].d(G)[sp].[moe](G)p.[moe](T)p.[moe](A)[sp].[moe](G)}$$$$ (last 3' nucleoside missing) | 5.5 |
| RNA1{[moe](G)[sp].[moe](T)p.[moe](G)p.[moe]([m5C])p.[moe](A)p.[moe](T)[sp].d(A)[sp].d([m5C])[sp].d([m5C])[sp].d([m5C])[sp].d(A)[sp].d(G)[sp].d(G)[sp].d(G)[sp].[moe](T)p.[moe](A)[sp].[moe](G)}$$$$ (last 3' nucleoside missing) | 4 |
| RNA1{[moe](G)[sp].[moe](T)p.[moe](G)p.[moe]([m5C])p.[moe](A)p.[moe](T)p.d(A)[sp].d([m5C])[sp].d([m5C])[sp].d([m5C])[sp].d(A)[sp].d(G)[sp].d(G)[sp].d(G)[sp].d(T)[sp].d(A)[sp].[moe](G)p.[moe](G)[sp].[moe](A)}$$$$ (last 3' nucleoside missing) | 1 |
| RNA1{[moe](G)[sp].[moe](T)p.[moe](G)p.[moe]([m5C])p.[moe](A)p.d(T)[sp].d(A)[sp].d([m5C])[sp].d([m5C])[sp].d([m5C])[sp].d(A)[sp].d(G)[sp].d(G)[sp].d(G)[sp].d(T)[sp].[moe](A)p.[moe](G)p.[moe](G)[sp].[moe](A)}$$$$ (last 3' nucleoside missing) | 1.2 |
| RNA1{[moe](G)[sp].[moe](T)p.[moe](G)p.[moe]([m5C])p.[moe]([m5C])p.d(T)[sp].d(T)[sp].d(T)[sp].d([m5C])[sp].d(T)[sp].d(A)[sp].d(T)[sp].d(T)[sp].d(T)[sp].d([m5C])[sp].[moe](A)p.[moe](G)p.[moe](A)[sp].[moe]([m5C])}$$$$ (last 3' nucleoside missing) | 0 |
| RNA1{[moe](G)[sp].[moe](T)p.[moe](G)p.[moe]([m5C])p.d(A)[sp].d(T)[sp].d(A)[sp].d([m5C])[sp].d([m5C])[sp].d([m5C])[sp].d(A)[sp].d(G)[sp].d(G)[sp].d(G)[sp].[moe](T)p.[moe](A)p.[moe](G)p.[moe](G)[sp].[moe](A)}$$$$ (last 3' nucleoside missing) | 2 |
| RNA1{[moe](G)[sp].[moe](T)p.[moe](T)p.[moe](A)p.[moe](G)p.d(G)[sp].d(T)[sp].d(T)[sp].d(A)[sp].d(G)[sp].d(T)[sp].d(G)[sp].d([m5C])[sp].d(A)[sp].d([m5C])[sp].[moe](A)p.[moe](G)p.[moe](A)[sp].[moe](T)}$$$$ (last 3' nucleoside missing) | 6 |
| RNA1{[moe](G)[sp].[moe](T)p.[moe](T)p.[moe](T)p.[moe](A)p.d(G)[sp].d(G)[sp].d(T)[sp].d([m5C])[sp].d(A)[sp].d(A)[sp].d([m5C])[sp].d([m5C])[sp].d(A)[sp].d(A)[sp].[moe](T)p.[moe](T)p.[moe](T)[sp].[moe](G)}$$$$ (last 3' nucleoside missing) | 1 |
| RNA1{[moe](G)[sp].[moe](T)p.[moe](T)p.[moe](T)p.[moe](A)p.d(T)[sp].d(A)[sp].d(G)[sp].d(G)[sp].d(G)[sp].d(T)[sp].d(G)[sp].d(G)[sp].d(T)[sp].d(T)[sp].[moe](G)p.[moe](G)p.[moe](T)[sp].[moe](T)}$$$$ (last 3' nucleoside missing) | 7 |
